Assay results: article PMC7465886, “4-(N-Alkyl- and -Acyl-amino)-1,2,4-triazole-3-thione Analogs as Metallo-β-Lactamase Inhibitors: Impact of 4-Linker on Potency and Spectrum of Inhibition” (Biomolecules, 2020)
Like-named read-outs stand apart in the source and are kept apart here.

Key:
[1] = target: T1, IMP-1 (Serratia marcescens, UniProt P52699); set-up: method as in PMID 32937203; settings: in parentheses; 100 μM inhibitor; cited from earlier work
T1 construct: made in house; host or cells: E. coli BL21(DE3) derivative, pET-9a
T1 sequence (P52699 19-246 limits assumed): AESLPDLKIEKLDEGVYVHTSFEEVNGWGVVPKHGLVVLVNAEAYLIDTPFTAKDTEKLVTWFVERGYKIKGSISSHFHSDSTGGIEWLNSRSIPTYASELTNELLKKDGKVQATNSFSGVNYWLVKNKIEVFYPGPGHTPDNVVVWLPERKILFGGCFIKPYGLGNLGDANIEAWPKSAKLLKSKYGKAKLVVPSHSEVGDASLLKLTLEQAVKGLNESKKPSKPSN

[2] = target: T2, NDM-1 (Klebsiella pneumoniae, UniProt C7C422); set-up: method as in PMID 32937203; settings: Schiff base analogs; read-out: Ki Value NDM-1, hydrazone-like compound (converted); cited from earlier work
T2 sequence (C7C422 37-270 limits assumed): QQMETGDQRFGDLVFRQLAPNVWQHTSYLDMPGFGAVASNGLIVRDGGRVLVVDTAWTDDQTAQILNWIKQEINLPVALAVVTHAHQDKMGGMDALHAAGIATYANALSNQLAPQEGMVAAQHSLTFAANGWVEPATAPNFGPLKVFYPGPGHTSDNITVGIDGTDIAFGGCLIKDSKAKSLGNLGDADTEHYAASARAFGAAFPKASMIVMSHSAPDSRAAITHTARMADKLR

[3] = target: T3, VIM-2 (Escherichia coli, UniProt Q5U7L7); settings: Schiff base analogs; read-out: Ki Value VIM-2, hydrazone-like compound (converted); cited from earlier work
T3 construct: made in house; host or cells: E. coli BL21(DE3) derivative, pET-9a

[4] = target: T4, VIM-4 (Pseudomonas aeruginosa, UniProt A0A0F7KYQ8, S205R); set-up: method as in PMID 32937203; settings: Figure 1; read-out: Ki VIM-4, Schiff base; cited from earlier work
T4 construct: made in house; host or cells: E. coli BL21(DE3) derivative, pET-9a

[5] = target: T3, VIM-2; assay: MBL inhibition, reporter substrate method, VIM-2; format: biochemical; settings: hydrazine and hydrazide series; read-out: Ki Value VIM-2
Experimental: (§1) Compounds were prepared in DMSO at a final concentration of 50 mM prior to dilution in the assay buffer. The reaction rate was measured as the variation of absorbance observed upon substrate hydrolysis in a UV-Vis spectrophotometer or microplate reader at a wavelength of 300 nm (imipenem, meropenem), 260 nm (cefotaxime), or 482 nm (nitrocefin) and in the presence of a purified MBL enzyme (such as VIM-1, VIM-2, VIM-4, NDM-1, and IMP-1, at a final concentration ranging from 1 to 70 nM).
(§2) These enzymes were overproduced in derivatives of E. coli BL21(DE3) carrying a pET-9 a (IMP-1, VIM-1, VIM-2, and VIM-4) or pET-15 b (NDM-1) vector into which the metallo-β-lactamase-encoding open reading frame was cloned. Bacterial strains were grown in the auto-inducing medium, ZYP-5052, supplemented with 50 μg/mL kanamycin for 24 h at 37 °C [38]. IMP-1, VIM-1, VIM-2, and VIM-4 were purified by ion-exchange and gel filtration chromatography using an AKTA Purifier platform (GE Healthcare, Uppsala, Sweden) as previously described. NDM-1 (residues 37-270) was produced as an amino-terminal 6 xHis-tag fusion protein and was purified using affinity chromatography. After growth for 26 h at 25 °C, bacterial cells were harvested by centrifugation (10,000× g, 30 min, 4 °C), resuspended in 10 mM HEPES buffer (pH 7.5) containing 0.15 M NaCl (buffer A) in one-fifth of the original culture volume, and lysed by sonication. Cellular debris was removed by centrifugation (12,000× g, 40 min, 4 °C). The clarified sample was loaded on a HisTrap HP column (bed volume, 5 mL; GE Healthcare), followed by a wash step (25 mL) with buffer A containing 20 mM imidazole. Proteins were eluted using buffer A containing 350 mM imidazole. The resulting protein sample was desalted (HiPrep 26/10 Desalting column, GE Healthcare) using 20 mM triethanolamine (pH 7.2) supplemented with 50 μM ZnSO4 and concentrated using an Amicon Ultra-15 (MW cut-off, 10 kDa; Millipore, Burlington, MA, USA). The concentrated sample was loaded on a Superdex 75 prep grade column (XK16/100 column; bed volume, 140 mL; GE Healthcare) and the proteins eluted with buffer A containing 50 μM ZnSO4. The active fractions were pooled and stored at −20 °C. The purity of the protein preparations was estimated >95% by SDS-PAGE analysis. The authenticity of the enzyme preparations was confirmed by electron spray ionization mass spectrometry, as previously described.
(§3) The inhibition constants (Ki) were determined on the basis of a model of competitive inhibition by analyzing the dependence of the ratio v0/vi (v0, hydrolysis velocity in the absence of inhibitor; vi, hydrolysis velocity in the presence of inhibitor) as a function of [I] as already described. The slope of the plot of v0/vi vs. [I], which corresponds to Km^S/(Km^S + [S])Ki (where Km^S is the Km value of the reporter substrate and [S] its concentration in the reaction mixture) and allowed the calculation of the Ki value. Alternatively, a Dixon plot analysis was carried out by measuring the initial hydrolysis rates in the presence of variable concentrations of inhibitor and substrate. This allowed Ki values to be determined and supported the hypothesis that the various compounds behaved as competitive inhibitors of the various tested enzymes. The assays were performed in triplicate.

[6] = target: T5, CphA (Aeromonas hydrophila, UniProt P26918); assay: MBL inhibition, CphA (imipenem hydrolysis); format: biochemical
T5 construct: made in house
T5 sequence (P26918 28-254): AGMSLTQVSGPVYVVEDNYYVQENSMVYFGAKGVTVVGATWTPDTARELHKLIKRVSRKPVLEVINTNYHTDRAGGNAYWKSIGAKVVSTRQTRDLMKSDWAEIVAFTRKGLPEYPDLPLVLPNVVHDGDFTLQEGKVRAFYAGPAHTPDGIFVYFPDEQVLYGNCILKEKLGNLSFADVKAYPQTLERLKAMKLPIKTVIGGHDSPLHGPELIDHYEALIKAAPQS
Experimental: Compounds were prepared as 10 mM solutions in DMSO before dilution with appropriate buffers. Buffers were 25 mM Hepes pH 7.5 for CphA or 25 mM Hepes pH 7.5, 50 µM ZnCl2 for L1. The rates in the absence of inhibitor were not modified by addition of 1% DMSO. CphA and L1 enzymes, purified as previously described, were used at concentrations between 0.2 and 0.8 nM, respectively. The enzyme and the inhibitor (100 µM) were pre-incubated for 30 min in a volume of 495 µL at room temperature. The hydrolysis of a solution of 100 µM imipenem for CphA was monitored by following the absorbance variation at 300 nm using a Specord 50 PLUS spectrophotometer (Analytik Jena, Jena, Germany). For L1, the reporter substrate was nitrocefin (100 µM). The enzyme activity was measured by following the absorbance variation at 482 nm. The substrate hydrolysis was done at 30 °C. The activity was tested by measuring the initial rates in three samples without inhibitor that allowed to determine the percentage of residual β-lactamase activity in the presence of inhibitors. […] The Hanes linearization of the Henri–Michaelis equation was used, and Ki was calculated on the basis of the following equation, v = (Vmax.S)/[S + Km(1 + I/Ki)]. […]

[7] = target: T6, VIM-1 (Pseudomonas aeruginosa, UniProt A0A0F7KYQ8); assay: MBL inhibition, reporter substrate method, VIM-1; format: biochemical
T6 construct: made in house; host or cells: E. coli BL21(DE3) derivative, pET-9a
Experimental: as §1, §2, §3

[8] = test system: E. coli LZ2310(pLBII-VIM-2); assay: microbe, parasite or virus in culture; format: cell-based, Escherichia coli; settings: for Restoration of cefoxitin activity (in words): 30 μg cefoxitin disk, compound 1 at 48 μg, EUCAST clinical breakpoints; for zone of inhibition at 40 µg/disc / zone of inhibition at 120 µg/disc: Escherichia coli, read-out: Inhibition Zone Diameter
Experimental: (§4) The potential activity of selected compounds was assessed by the agar disk-diffusion method, according to the CLSI (Clinical Laboratory Standard Institute) recommendations, using Mueller–Hinton medium. The inhibitor (dissolved in DMSO) was added (maximum volume of 15 μL) to a commercially available disk containing a defined amount of a β-lactam antibiotic (30 μg of cefoxitin (Oxoid, Milan, Italy)). After incubation (18 h at 35 °C), the diameter of the growth inhibition zone was measured and compared to that obtained in the absence of inhibitor. DMSO and EDTA (220 μg) were used as negative and positive controls, respectively. Experiments were performed in triplicate.
These tests were performed on an isogenic laboratory strain obtained after transforming Escherichia coli LZ2310 strain with a derivative of the high copy number plasmid pLB-II carrying the cloned blaVIM-2 gene harboring a cloned gene encoding the functional metallo-β-lactamase. Strain LZ2310 is a triple knockout mutant derived from K12 in which the genes encoding for components of the three major efflux pump systems were inactivated (genotype, ∆norE ∆mdfA N43 acrA1) and was used to generate an hyperpermeable background for MBL production and investigate the potential contribution of such mechanisms to inhibitor efflux.

[9] = target: T7, L1 (Stenotrophomonas maltophilia, UniProt P52700); assay: MBL inhibition, L1 (nitrocefin hydrolysis); format: biochemical; settings: for inhibition at 100 µM: 100 μM inhibitor, read-out: Inhibition of L1 (dash)
T7 construct: made in house
T7 sequence (P52700 34-290): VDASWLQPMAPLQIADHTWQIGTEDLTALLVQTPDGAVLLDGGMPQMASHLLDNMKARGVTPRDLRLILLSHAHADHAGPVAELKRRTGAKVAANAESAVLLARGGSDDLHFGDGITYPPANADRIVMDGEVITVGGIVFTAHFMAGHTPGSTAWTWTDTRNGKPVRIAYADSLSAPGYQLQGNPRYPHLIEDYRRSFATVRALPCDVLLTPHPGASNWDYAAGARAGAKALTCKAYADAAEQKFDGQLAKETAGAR
Experimental: Compounds were prepared as 10 mM solutions in DMSO before dilution with appropriate buffers. Buffers were 25 mM Hepes pH 7.5 for CphA or 25 mM Hepes pH 7.5, 50 µM ZnCl2 for L1. The rates in the absence of inhibitor were not modified by addition of 1% DMSO. CphA and L1 enzymes, purified as previously described, were used at concentrations between 0.2 and 0.8 nM, respectively. The enzyme and the inhibitor (100 µM) were pre-incubated for 30 min in a volume of 495 µL at room temperature. The hydrolysis of a solution of 100 µM imipenem for CphA was monitored by following the absorbance variation at 300 nm using a Specord 50 PLUS spectrophotometer (Analytik Jena, Jena, Germany). For L1, the reporter substrate was nitrocefin (100 µM). The enzyme activity was measured by following the absorbance variation at 482 nm. The substrate hydrolysis was done at 30 °C. The activity was tested by measuring the initial rates in three samples without inhibitor that allowed to determine the percentage of residual β-lactamase activity in the presence of inhibitors. If the residual activity in the presence of 100 µM inhibitor was <30%, the initial rate conditions were used to study the inhibition in the presence of increasing concentrations of compounds (from 1 to 100 µM) and to determine the competitive inhibition constant Ki. The Hanes linearization of the Henri–Michaelis equation was used, and Ki was calculated on the basis of the following equation, v = (Vmax.S)/[S + Km(1 + I/Ki)]. The assays were performed in triplicates.

[10] = target: T4, VIM-4; assay: MBL inhibition, reporter substrate method, VIM-4; format: biochemical
Experimental: as §1, §2, §3

[11] = target: T2, NDM-1; assay: MBL inhibition, reporter substrate method, NDM-1; format: biochemical; settings: for inhibition at 100 µM: read-out: Inhibition of NDM-1 (dash in Ki column)
Experimental: as §1, §2, §3

[12] = target: T1, IMP-1; assay: MBL inhibition, reporter substrate method, IMP-1; format: biochemical; settings: for inhibition at 100 µM: read-out: Inhibition of IMP-1 (dash in Ki column)
Experimental: as §1, §2, §3

[13] = test system: VIM-4-producing laboratory strain; assay: Disk diffusion on VIM-4-producing laboratory strain; format: cell-based
Experimental: as §4

[14] = read-out: Inhibition of VIM-1 (dash)

SMILES | Ki [5] [µM] | inhibition at 100 µM [7, 14] [%] | Restoration of cefoxitin activity (in words) [8] | zone of inhibition at 40 µg/disc [8] [mm] | Ki [10] [µM] | inhibition at 100 µM [11] [%] | inhibition at 100 µM [12] [%] | zone of inhibition at 120 µg/disc [8] [mm] | inhibition at 100 µM [9] [%] | Ki [7] [µM] | also measured
O=C(O)c1ccccc1/C=N/n1c(-c2ccccc2)n[nH]c1=S [JMV4390] | – | – | – | – | – | – | – | – | – | – | Inhibition of IMP-1 (dash in Ki column), corresponding hydrazone-like compound [1]: -^2 (-) (<40% of inhibition in the presence of 100 μM inhibitor); Ki [2]: 38 µM; Ki [3]: 2700 nM; Ki [4]: 1400 nM
Cc1ccccc1-c1n[nH]c(=S)n1NCc1ccccc1C(=O)O [Compound 2] | 8 ± 0.7 | < 30 | did not show any remarkable activity | 11 | 10 ± 1 | < 40 | < 40 | – | – | – | Ki [6]: 100 ± 10 µM; Ki [9]: 110 ± 10 µM
O=C(O)c1ccccc1CNn1c(-c2ccc3ccccc3c2)n[nH]c1=S [Compound 4] | 4.2 ± 0.9 | – | did not show any remarkable activity | – | 6.3 ± 0.7 | < 40 | < 40 | 10 | < 30 | – | inhibition at 100 µM ([7]; read-out: Percentage of Inhibition at 100 μM Inhibitor, VIM-1): 32%
O=C(O)c1ccccc1CNn1c(-c2cccc(-c3ccccc3)c2)n[nH]c1=S [Compound 3] | 0.24 ± 0.02 | – | devoid of activity | – | 0.57 ± 0.03 | – | – | 11 | – | 3.6 ± 0.2 | Restoration of β-lactam activity (in words) [13]: lack of restoration activity; Ki ([11]; hydrazine series, read-out: Ki Value NDM-1): 8.2 ± 0.7 µM; Ki ([12]; hydrazine series, read-out: Ki Value IMP-1): 76 ± 13 µM
O=C(O)c1ccccc1CNn1c(Cc2ccc3ccccc3c2)n[nH]c1=S [Compound 7] | 1.8 ± 0.2 | – | did not show any remarkable activity | – | 4.7 ± 0.3 | < 40 | < 40 | 11 | – | 19.5 ± 1.3 | –
O=C(O)c1ccccc1CNn1c(Cc2ccccc2)n[nH]c1=S [Compound 6] | 8.5 ± 2.3 | < 30 | did not show any remarkable activity | 10 | – | < 40 | < 40 | – | < 30 | – | inhibition at 100 µM ([10]; read-out: Inhibition of VIM-4 (dash)): < 30%
